From paper PMC10590056, “Design and synthesis of cabotegravir derivatives bearing 1,2,3-triazole and evaluation of anti-liver cancer activity” (Frontiers in Pharmacology, 2023) come the findings set out here.

Values joined by “and” are separate entries in the source; they are usually repeats but may differ in a detail not shown here. Equal values may be shown once.

The first assay deals with KYSE-30 cells. Kind of assay: MTT assay for cell proliferation, KYSE-30. Type of assay: cell-based. Also on record: key to Inhibitory rate: inhibition rate = 1 - mean A490 sample/mean A490 control (fraction). The note with it: KYSE-30, first of three experiments. Here is the method: (§1) HepG2, HeLa, MCF-7, and KYSE-30 cells were grown in a humidified incubator at 37°C with 5% CO2 in DMEM supplemented with 10% fetal bovine serum (FBS), […] streptomycin, and 100 U/mL penicillin.
(§2) When HepG2 cells reached 80% confluence, they were treated with 1 mL of trypsin and resuspended at a density of 10^5 cells/mL. Then, 100 μL of cell suspension was seeded into each well of a 96-well plate and incubated in a humidified atmosphere. The different concentrations of KJ-5 and KJ-12 (0, 1, 2, 4, 8, 16, and 32 μM) were added to each well, and the cells were further incubated for 48 h. Afterward, 20 μL of the MTT solution (5 mg/mL) was added to each well, and incubation was continued for another 4 h. The supernatant was discarded, and 200 μL of the DMSO solution was added to each well. The plate was shaken for 10 min in the dark. The absorbance values were measured at 490 nm using an enzyme-linked detector. The cell inhibition rate (%) was calculated using the following formula: (1-Mean A490 sample/Mean A490 control) × 100%.
`COc1c2n(cc(C(=O)Nc3cccc(-c4cn(-c5cc(C(F)(F)F)ccc5C(F)(F)F)nn4)c3)c1=O)CC1OCC(C)N1C2=O` (stereo not shown) [KJ-11]: the ODtreated/ODcontrol came out at 0.7351.
Take `COc1c2n(cc(C(=O)Nc3cccc(-c4cn(-c5ccccc5Br)nn4)c3)c1=O)CC1OCC(C)N1C2=O` (stereo not shown) [KJ-13]: the ODtreated/ODcontrol came out at 0.7102.

The assay is the same for the next values; noted with them: KYSE-30, given as fraction; first of three experiments.
`COc1c2n(cc(C(=O)Nc3cccc(-c4cn(-c5cc(C(F)(F)F)ccc5C(F)(F)F)nn4)c3)c1=O)CC1OCC(C)N1C2=O` (stereo not shown) [KJ-11] registered an Inhibitory rate of 0.2649.
On the same count and under the same terms, the result for `COc1c2n(cc(C(=O)Nc3cccc(-c4cn(-c5ccccc5Br)nn4)c3)c1=O)CC1OCC(C)N1C2=O` (stereo not shown) [KJ-13] reads 0.2898.

The assay is the same for the next values; noted with them: KYSE-30, given as fraction; second of three experiments.
In turn, `COc1c2n(cc(C(=O)Nc3cccc(-c4cn(-c5cc(C(F)(F)F)ccc5C(F)(F)F)nn4)c3)c1=O)CC1OCC(C)N1C2=O` (stereo not shown) [KJ-11] returned an Inhibitory rate of 0.225.
Regarding `COc1c2n(cc(C(=O)Nc3cccc(-c4cn(-c5ccccc5Br)nn4)c3)c1=O)CC1OCC(C)N1C2=O` (stereo not shown) [KJ-13], the Inhibitory rate is reported as 0.2542.

Staying with this assay, now noted: KYSE-30, given as fraction; third of three experiments.
`COc1c2n(cc(C(=O)Nc3cccc(-c4cn(-c5cc(C(F)(F)F)ccc5C(F)(F)F)nn4)c3)c1=O)CC1OCC(C)N1C2=O` (stereo not shown) [KJ-11] registered an Inhibitory rate of 0.2137.
On the same count and under the same terms, next, `COc1c2n(cc(C(=O)Nc3cccc(-c4cn(-c5ccccc5Br)nn4)c3)c1=O)CC1OCC(C)N1C2=O` (stereo not shown) [KJ-13]: 0.2107.

The assay is the same for the next values; noted with them: KYSE-30, second of three experiments.
With `COc1c2n(cc(C(=O)Nc3cccc(-c4cn(-c5cc(C(F)(F)F)ccc5C(F)(F)F)nn4)c3)c1=O)CC1OCC(C)N1C2=O` (stereo not shown) [KJ-11], the ODtreated/ODcontrol is recorded as 0.775.
Molecule `COc1c2n(cc(C(=O)Nc3cccc(-c4cn(-c5ccccc5Br)nn4)c3)c1=O)CC1OCC(C)N1C2=O` (stereo not shown) [KJ-13] yielded an ODtreated/ODcontrol of 0.7458.

The assay is the same for the next values; noted with them: KYSE-30, third of three experiments.
On to `COc1c2n(cc(C(=O)Nc3cccc(-c4cn(-c5cc(C(F)(F)F)ccc5C(F)(F)F)nn4)c3)c1=O)CC1OCC(C)N1C2=O` (stereo not shown) [KJ-11], for which the ODtreated/ODcontrol was found to be 0.7863.
Same read-out and setting: the result for `COc1c2n(cc(C(=O)Nc3cccc(-c4cn(-c5ccccc5Br)nn4)c3)c1=O)CC1OCC(C)N1C2=O` (stereo not shown) [KJ-13] reads 0.7893.

The same assay, now with this note: preliminary screening, KYSE-30, 16 μM, 48 h, mean±SD; unit not given.
Turning to `COc1c2n(cc(C(=O)Nc3cccc(-c4cn(-c5cc(C(F)(F)F)ccc5C(F)(F)F)nn4)c3)c1=O)CC1OCC(C)N1C2=O` (stereo not shown) [KJ-11], the “Inhibition rate (16μM), 48 h, KYSE-30” value is recorded as 23.45±2.69.
Still for that read-out and setting: next, `COc1c2n(cc(C(=O)Nc3cccc(-c4cn(-c5ccccc5Br)nn4)c3)c1=O)CC1OCC(C)N1C2=O` (stereo not shown) [KJ-13]: 25.16±3.96.

In a further assay the test system is HeLa cells. Kind of assay: MTT assay for cell proliferation, HeLa. Type of assay: cell-based. Also on record: key to Inhibitory rate: inhibition rate = 1 - mean A490 sample/mean A490 control (fraction). As to conditions: Hela; fraction, per experiment. On the procedure:
as §1, §2
(In general: Tetrazolium assays rely on reduction of a dye to a coloured formazan, in cell work by metabolically active cells.)
Take `COc1c2n(cc(C(=O)Nc3cccc(-c4cn(-c5cc(C(F)(F)F)ccc5C(F)(F)F)nn4)c3)c1=O)CC1OCC(C)N1C2=O` (stereo not shown) [KJ-11]: the Inhibitory rate was 0.2491 and 0.2184 and 0.2018; the ODtreated/ODcontrol was 0.7509 and 0.7816 and 0.7982.
As for `COc1c2n(cc(C(=O)Nc3cccc(-c4cn(-c5ccccc5Br)nn4)c3)c1=O)CC1OCC(C)N1C2=O` (stereo not shown) [KJ-13], the Inhibitory rate was 0.1723 and 0.1977 and 0.2047; the ODtreated/ODcontrol is 0.8277 and 0.8023 and 0.7953.

The same assay, now with this note: preliminary screening, Hela, 16 μM, 48 h, mean±SD; unit not given.
Consider `COc1c2n(cc(C(=O)Nc3cccc(-c4cn(-c5cc(C(F)(F)F)ccc5C(F)(F)F)nn4)c3)c1=O)CC1OCC(C)N1C2=O` (stereo not shown) [KJ-11], for which the “Inhibition rate (16μM), 48 h, Hela” value is 22.31±2.4.
The same measure, in the same setting: the result for `COc1c2n(cc(C(=O)Nc3cccc(-c4cn(-c5ccccc5Br)nn4)c3)c1=O)CC1OCC(C)N1C2=O` (stereo not shown) [KJ-13] reads 19.16±1.71.

The subject of a further assay is HepG2 cells. Kind of assay: MTT assay for cell proliferation and cytotoxicity, HepG2. In kind it is cell-based. Further details: key to Inhibitory rate: inhibition rate = 1 - mean A490 sample/mean A490 control (fraction). As to conditions: HepG2, 48 h, MTT. On the procedure:
as §1, §2
Take `COc1c2n(cc(C(=O)Nc3cccc(-c4cn(-c5cc(C(F)(F)F)ccc5C(F)(F)F)nn4)c3)c1=O)CC1OCC(C)N1C2=O` (stereo not shown) [KJ-11]: the IC50 (as a rule, the concentration needed to halve the response being measured) is over 50 µM.
Still for that read-out and setting: the result for `COc1c2n(cc(C(=O)Nc3cccc(-c4cn(-c5ccccc5Br)nn4)c3)c1=O)CC1OCC(C)N1C2=O` (stereo not shown) [KJ-13] reads over 50 µM.

The assay is the same for the next values; noted with them: HepG2; fraction, per experiment.
As for `COc1c2n(cc(C(=O)Nc3cccc(-c4cn(-c5cc(C(F)(F)F)ccc5C(F)(F)F)nn4)c3)c1=O)CC1OCC(C)N1C2=O` (stereo not shown) [KJ-11], the Inhibitory rate was 0.2636 and 0.2471 and 0.2291; the ODtreated/ODcontrol is 0.7364 and 0.7529 and 0.7709.
For `COc1c2n(cc(C(=O)Nc3cccc(-c4cn(-c5ccccc5Br)nn4)c3)c1=O)CC1OCC(C)N1C2=O` (stereo not shown) [KJ-13], the Inhibitory rate was 0.2436 and 0.2489 and 0.2333; the ODtreated/ODcontrol was 0.7564 and 0.7511 and 0.7667.

The assay is the same for the next values; noted with them: Homo sapiens; HepG2, 48 h, MTT.
`C[C@H]1CO[C@@H]2Cn3cc(C(=O)NCc4ccc(F)cc4F)c(=O)c(O)c3C(=O)N12` [Cabotegravir] yielded an IC50 of over 50 µM.

The assay is the same for the next values; noted with them: preliminary screening, HepG2, 16 μM, 48 h, mean±SD; unit not given.
On to `COc1c2n(cc(C(=O)Nc3cccc(-c4cn(-c5cc(C(F)(F)F)ccc5C(F)(F)F)nn4)c3)c1=O)CC1OCC(C)N1C2=O` (stereo not shown) [KJ-11], for which the “Inhibition rate (16μM), 48 h, HepG2” value is given as 24.66±1.73.
The same measure, in the same setting: the result for `COc1c2n(cc(C(=O)Nc3cccc(-c4cn(-c5ccccc5Br)nn4)c3)c1=O)CC1OCC(C)N1C2=O` (stereo not shown) [KJ-13] reads 24.19±0.79.

The next assay relates to MCF-7 cells. Kind of assay: MTT assay for cell proliferation, MCF-7. Type of assay: cell-based. Further details: key to Inhibitory rate / Inhibition rate: inhibition rate = 1 - mean A490 sample/mean A490 control (fraction). As to conditions: MCF-7; fraction, per experiment. On the procedure:
as §1, §2
`COc1c2n(cc(C(=O)Nc3cccc(-c4cn(-c5cc(C(F)(F)F)ccc5C(F)(F)F)nn4)c3)c1=O)CC1OCC(C)N1C2=O` (stereo not shown) [KJ-11] returned an Inhibitory rate of 0.1458 and an ODtreated/ODcontrol of 0.8542.
As for `COc1c2n(cc(C(=O)Nc3cccc(-c4cn(-c5ccccc5Br)nn4)c3)c1=O)CC1OCC(C)N1C2=O` (stereo not shown) [KJ-13], the Inhibitory rate came out at 0.2953 and the ODtreated/ODcontrol is reported as 0.7047.

Staying with this assay, now noted: given as fraction; second of three experiments.
In the case of `COc1c2n(cc(C(=O)Nc3cccc(-c4cn(-c5cc(C(F)(F)F)ccc5C(F)(F)F)nn4)c3)c1=O)CC1OCC(C)N1C2=O` (stereo not shown) [KJ-11], the Inhibitory rate stood at 0.193.
The same measure, in the same setting: the result for `COc1c2n(cc(C(=O)Nc3cccc(-c4cn(-c5ccccc5Br)nn4)c3)c1=O)CC1OCC(C)N1C2=O` (stereo not shown) [KJ-13] reads 0.2534.

Staying with this assay, now noted: given as fraction; third of three experiments.
The molecule `COc1c2n(cc(C(=O)Nc3cccc(-c4cn(-c5cc(C(F)(F)F)ccc5C(F)(F)F)nn4)c3)c1=O)CC1OCC(C)N1C2=O` (stereo not shown) [KJ-11] gave an Inhibition rate of 0.2016.
Consider `COc1c2n(cc(C(=O)Nc3cccc(-c4cn(-c5ccccc5Br)nn4)c3)c1=O)CC1OCC(C)N1C2=O` (stereo not shown) [KJ-13], for which the Inhibition rate turned out to be 0.2193.

The same assay, now with this note: preliminary screening, MCF-7, 16 μM, 48 h, mean±SD; unit not given.
For `COc1c2n(cc(C(=O)Nc3cccc(-c4cn(-c5cc(C(F)(F)F)ccc5C(F)(F)F)nn4)c3)c1=O)CC1OCC(C)N1C2=O` (stereo not shown) [KJ-11], the “Inhibition rate (16μM), 48 h, MCF-7” value is recorded as 18.01±3.00.
Still for that read-out and setting: next, `COc1c2n(cc(C(=O)Nc3cccc(-c4cn(-c5ccccc5Br)nn4)c3)c1=O)CC1OCC(C)N1C2=O` (stereo not shown) [KJ-13]: 25.6±3.81.

The same assay, now with this note: second of three experiments.
With `COc1c2n(cc(C(=O)Nc3cccc(-c4cn(-c5cc(C(F)(F)F)ccc5C(F)(F)F)nn4)c3)c1=O)CC1OCC(C)N1C2=O` (stereo not shown) [KJ-11], the ODtreated/ODcontrol was 0.807.
The same measure, in the same setting: next, `COc1c2n(cc(C(=O)Nc3cccc(-c4cn(-c5ccccc5Br)nn4)c3)c1=O)CC1OCC(C)N1C2=O` (stereo not shown) [KJ-13]: 0.7467.

The same assay, now with this note: third of three experiments.
For `COc1c2n(cc(C(=O)Nc3cccc(-c4cn(-c5cc(C(F)(F)F)ccc5C(F)(F)F)nn4)c3)c1=O)CC1OCC(C)N1C2=O` (stereo not shown) [KJ-11], the ODtreated/ODcontrol is on record as 0.7984.
`COc1c2n(cc(C(=O)Nc3cccc(-c4cn(-c5ccccc5Br)nn4)c3)c1=O)CC1OCC(C)N1C2=O` (stereo not shown) [KJ-13] showed an ODtreated/ODcontrol of 0.7807.
